Results published in the supplement of paper PMC10307832.

What was measured:
Experiment in all cases: relative viability (nuclei count vs DMSO), 5 days (fraction); higher = more cells survive
Trametinib + Pictilisib = compound: CC(=O)Nc1cccc(-n2c(=O)n(C3CC3)c(=O)c3c(Nc4ccc(I)cc4F)n(C)c(=O)c(C)c32)c1 [Trametinib] + CS(=O)(=O)N1CCN(Cc2cc3nc(-c4cccc5[nH]ncc45)nc(N4CCOCC4)c3s2)CC1 [Pictilisib] (partner 1 µM)
Summary of the method: (§1)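 The day after seeding in 1536-well plates, lung cancer cell lines were treated by pin tool with a single drug, or with a fixed anchor-drug dose together with five library-drug doses (not always all listed) in √10 steps. After 5 days, a combined fix-and-stain solution (final 0.05% Triton X-100, 1% formaldehyde, 1 ug/ml Hoechst) was added. Nuclei counted on 4× images gave relative viability as treated counts over vehicle counts, reported as the median of duplicate plates.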

Trametinib + Linsitinib = compound: CC(=O)Nc1cccc(-n2c(=O)n(C3CC3)c(=O)c3c(Nc4ccc(I)cc4F)n(C)c(=O)c(C)c32)c1 [Trametinib] + C[C@]1(O)C[C@@H](c2nc(-c3ccc4ccc(-c5ccccc5)nc4c3)c3c(N)nccn32)C1 [Linsitinib] (partner 1 µM)
Summary of the method: as §1

Trametinib + Alpelisib = compound: CC(=O)Nc1cccc(-n2c(=O)n(C3CC3)c(=O)c3c(Nc4ccc(I)cc4F)n(C)c(=O)c(C)c32)c1 [Trametinib] + Cc1nc(NC(=O)N2CCC[C@H]2C(N)=O)sc1-c1ccnc(C(C)(C)C(F)(F)F)c1 [Alpelisib] (partner 2 µM)
Summary of the method: as §1

Trametinib + Dasatinib = compound: CC(=O)Nc1cccc(-n2c(=O)n(C3CC3)c(=O)c3c(Nc4ccc(I)cc4F)n(C)c(=O)c(C)c32)c1 [Trametinib] + Cc1nc(Nc2ncc(C(=O)Nc3c(C)cccc3Cl)s2)cc(N2CCN(CCO)CC2)n1 [Dasatinib] (partner 0.075 µM)
Summary of the method: as §1

Row | Cell Line | relative viability (Trametinib + Pictilisib; first compound 0.0025 µM) | relative viability (Trametinib + Pictilisib; first compound 0.007906 µM) | relative viability (Trametinib + Pictilisib; first compound 0.025 µM) | relative viability (Trametinib + Pictilisib; first compound 0.07906 µM) | relative viability (Trametinib + Pictilisib; first compound 0.25 µM) | relative viability (Trametinib + Linsitinib; first compound 0.0025 µM) | relative viability (Trametinib + Linsitinib; first compound 0.007906 µM) | relative viability (Trametinib + Linsitinib; first compound 0.025 µM) | relative viability (Trametinib + Linsitinib; first compound 0.07906 µM) | relative viability (Trametinib + Linsitinib; first compound 0.25 µM) | relative viability (Trametinib + Alpelisib; first compound 0.0025 µM) | relative viability (Trametinib + Alpelisib; first compound 0.007906 µM) | relative viability (Trametinib + Alpelisib; first compound 0.025 µM) | relative viability (Trametinib + Alpelisib; first compound 0.07906 µM) | relative viability (Trametinib + Alpelisib; first compound 0.25 µM) | relative viability (Trametinib + Dasatinib; first compound 0.0025 µM) | relative viability (Trametinib + Dasatinib; first compound 0.007906 µM) | relative viability (Trametinib + Dasatinib; first compound 0.025 µM) | relative viability (Trametinib + Dasatinib; first compound 0.07906 µM) | relative viability (Trametinib + Dasatinib; first compound 0.25 µM)
1 | NCI-H1395 | 0.607 | 0.631 | 0.576 | 0.453 | 0.65 | 0.981 | 1.15 | 1.14 | 1.02 | 0.673 | 1.02 | 0.903 | 1.39 | 1.09 | 0.652 | 0.44 | 0.662 | 0.454 | 0.378 | 0.345
2 | COR-L23 | 0.72 | 0.756 | 0.555 | 0.439 | 0.308 | 0.874 | 0.851 | 0.827 | 0.639 | 0.306 | 0.766 | 0.723 | 0.668 | 0.436 | 0.241 | 0.446 | 0.449 | 0.502 | 0.484 | 0.246
3 | EMC-BAC-2 | 0.517 | 0.429 | 0.379 | 0.423 | 0.331 | 0.744 | 0.754 | 0.634 | 0.674 | 0.537 | 0.645 | 0.641 | 0.562 | 0.568 | 0.497 | 0.352 | 0.407 | 0.419 | 0.443 | 0.365
4 | NCI-H1355 | 0.339 | 0.313 | 0.199 | 0.228 | 0.214 | 0.737 | 0.605 | 0.375 | 0.433 | 0.352 | 0.68 | 0.627 | 0.356 | 0.388 | 0.352 | 0.607 | 0.528 | 0.337 | 0.373 | 0.326
5 | NCI-H1792 | 0.227 | 0.183 | 0.182 | 0.152 | 0.104 | 0.489 | 0.39 | 0.363 | 0.234 | 0.164 | 0.644 | 0.53 | 0.537 | 0.382 | 0.255 | 0.694 | 0.515 | 0.652 | 0.549 | 0.396
6 | NCI-H1944 | 0.333 | 0.307 | 0.253 | 0.278 | 0.262 | 1.08 | 0.79 | 0.643 | 0.606 | 0.428 | 0.716 | 0.603 | 0.532 | 0.463 | 0.325 | 0.193 | 0.177 | 0.164 | 0.144 | 0.145
7 | ABC-1 | 0.552 | 0.56 | 0.363 | 0.458 | 0.28 | 0.673 | 0.462 | 0.537 | 0.421 | 0.41 | 0.729 | 0.703 | 0.564 | 0.583 | 0.554 | 0.539 | 0.467 | 0.365 | 0.384 | 0.371
8 | HOP-62 | 0.597 | 0.229 | 0.128 | 0.133 | 0.0772 | 1.06 | 0.921 | 0.705 | 0.487 | 0.152 | 0.813 | 0.984 | 0.525 | 0.377 | 0.166 | 0.681 | 0.43 | 0.249 | 0.206 | 0.212
9 | NCI-H2009 | 0.502 | 0.366 | 0.148 | 0.206 | 0.208 | 0.916 | 0.717 | 0.483 | 0.472 | 0.334 | 0.88 | 0.72 | 0.444 | 0.485 | 0.362 | 0.203 | 0.169 | 0.143 | 0.168 | 0.157
